The values that follow come from ChEMBL document CHEMBL1201862, “PubChem BioAssay data set” (2004).

The structures appear in SMILES notation. pIC50: −log10 of the molar value. Activity calls are given as the source filed them.

Test [1] has as its target CAAX prenyl protease 2 (Saccharomyces cerevisiae S288c, UniProt Q03530). The test is classed as biochemical.
For test [2], the target named is CAAX prenyl protease 2 (Homo sapiens, UniProt Q9Y256). The experiment in a line: human Rce1 protease inhibitors, dose response, biochemical, yeast membranes, quenched-peptide fluorescence, cherry-pick (AID 588849).
Test [3] deals with T1, Mannose-6-phosphate isomerase (Homo sapiens, UniProt P34949).
T1 sequence (P34949 whole entry): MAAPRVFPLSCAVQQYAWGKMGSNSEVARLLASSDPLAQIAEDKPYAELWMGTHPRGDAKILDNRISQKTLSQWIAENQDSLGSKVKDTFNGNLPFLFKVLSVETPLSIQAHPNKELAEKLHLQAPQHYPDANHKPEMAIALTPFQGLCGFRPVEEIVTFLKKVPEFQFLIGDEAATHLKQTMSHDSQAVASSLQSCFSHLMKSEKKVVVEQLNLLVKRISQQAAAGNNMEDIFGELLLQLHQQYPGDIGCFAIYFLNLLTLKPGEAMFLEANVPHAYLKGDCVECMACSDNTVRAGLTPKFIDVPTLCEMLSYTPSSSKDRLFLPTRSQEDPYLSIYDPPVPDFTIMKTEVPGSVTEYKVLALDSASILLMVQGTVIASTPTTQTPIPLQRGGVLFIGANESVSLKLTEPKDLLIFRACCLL
The experiment in a line: PMI enzyme inhibitors, confirmation, biochemical, fluorescence intensity (AID 1535).

Test [4] concerns the target Alkaline phosphatase, placental type (Homo sapiens, UniProt P05187). The experiment in a line: PLAP enzyme inhibitors, confirmation, biochemical, luminescence (AID 1512). The test is classed as functional.
Test [5] deals with T1, Mannose-6-phosphate isomerase. Put plainly: Confirmation of compounds inhibiting phosphomannose isomerase (PMI) via a fluorescence intensity assay using a high concentration of mannose 6-phosphate. [Related pubchem assays (depositor defined):AID1209, AID1220, AID1545, AID1553, AID1620].
For test [6], the target named is Glyceraldehyde-3-phosphate dehydrogenase (Homo sapiens, UniProt P04406).
The target of test [7] is T2, Dual specificity protein phosphatase 6 (Rattus norvegicus, UniProt Q64346).
T2 sequence (Q64346 whole entry): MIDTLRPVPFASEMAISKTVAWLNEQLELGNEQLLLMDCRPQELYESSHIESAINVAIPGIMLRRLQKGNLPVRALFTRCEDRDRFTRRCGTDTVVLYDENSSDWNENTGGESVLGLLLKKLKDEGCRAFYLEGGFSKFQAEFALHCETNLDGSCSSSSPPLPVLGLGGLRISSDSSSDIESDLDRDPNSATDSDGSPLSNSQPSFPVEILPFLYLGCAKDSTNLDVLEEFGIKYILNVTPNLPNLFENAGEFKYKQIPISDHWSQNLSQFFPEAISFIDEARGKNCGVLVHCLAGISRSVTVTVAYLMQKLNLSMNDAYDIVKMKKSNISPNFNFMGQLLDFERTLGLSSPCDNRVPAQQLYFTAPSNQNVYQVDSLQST

The target in test [8] is T3, Tyrosine-protein phosphatase non-receptor type 7 (Homo sapiens, UniProt P35236).
T3 sequence (P35236 whole entry): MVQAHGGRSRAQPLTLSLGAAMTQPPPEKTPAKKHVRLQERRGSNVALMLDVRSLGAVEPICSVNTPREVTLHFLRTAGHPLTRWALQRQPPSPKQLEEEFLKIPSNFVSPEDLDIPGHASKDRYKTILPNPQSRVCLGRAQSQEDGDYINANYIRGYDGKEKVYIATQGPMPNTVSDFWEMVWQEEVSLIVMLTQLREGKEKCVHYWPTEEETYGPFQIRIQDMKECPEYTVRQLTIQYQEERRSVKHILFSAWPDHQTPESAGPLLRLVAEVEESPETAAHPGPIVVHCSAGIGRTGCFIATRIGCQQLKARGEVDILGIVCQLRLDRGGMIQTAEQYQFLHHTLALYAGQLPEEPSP
It counts as functional.

The target in test [9] is T4, Dual specificity protein phosphatase 3 (Homo sapiens, UniProt P51452). Put plainly: SAR VHR1 Fluorescent Assay for In Vitro dose response studies. [Related pubchem assays (depositor defined):AID1654, AID1661, AID1878, AID1992, AID2004, AID2070, AID2085]. It counts as functional.
The target of test [10] is T4, Dual specificity protein phosphatase 3. The experiment in a line: MOA VHR1 Fluorescent secondary assay for identification of redox-state modulating compounds. [Related pubchem assays (depositor defined):AID1654, AID1661, AID1878, AID1957].
Test [11] concerns the target T3, Tyrosine-protein phosphatase non-receptor type 7. The experiment in a line: redox-dependent HePTP inhibition, mechanism study, biochemical, fluorescence (AID 2068). The test is classed as functional.
The target of test [12] is T2, Dual specificity protein phosphatase 6. The test is classed as functional.
Test [13] in a line: cytotoxicity in NIH/3T3 mouse fibroblasts, dose response, cytotoxicity control, cell-based, mouse embryonic fibroblasts, dry powder, set 2 (AID 493247). Conditions: Fibroblast. The test is classed as functional.
Test [14] relates to Trypanosoma cruzi. Put plainly: growth inhibition of intracellular Trypanosoma cruzi, dose response, cell-based, plate reader, dry powder, set 3 (AID 493197). It counts as functional.
Test [15] deals with Sphingosine 1-phosphate receptor 4 (Homo sapiens, UniProt O95977). The experiment in a line: S1P4 receptor agonists, human, late-stage follow-up, cell-based, fluorescence, synthesized compounds (AID 463107). It counts as functional.
The target of test [16] is T5, Kappa-type opioid receptor (Homo sapiens, UniProt P41145). The test is classed as functional.
A short description of test [17]: cells. It counts as functional, cell-based.
A short description of test [18]: cells. It counts as functional, cell-based. The source holds these as a separate data set.
For test [19], the system named is INS1. Put plainly: beta cell apoptosis inhibitors, cytokine rescue, dose response, luminescence, retest (AID 449756).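 Note: cell death triggered by IL-1 beta plus TNF-alpha plus IFN-gamma mixture; protective hits raise ATP signal compared with cytokine alone wells.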 The test is classed as functional, cell-based. Conditions: Rattus norvegicus.
Test [20] in a line: cytotoxicity toward NIH3T3 fibroblasts, dose response, counter-screen, cell-based, ATP luminescence, mouse fibroblasts (AID 2010).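 Note: cells exposed to compound for about 90 hours before reading.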 It counts as functional.
The subject of test [21] is Vero. Put plainly: cells. The test is classed as functional. Conditions: Chlorocebus sabaeus.
Test [22] concerns the target T6, Microphthalmia-associated transcription factor (Homo sapiens, UniProt O75030).
T6 sequence (O75030 whole entry): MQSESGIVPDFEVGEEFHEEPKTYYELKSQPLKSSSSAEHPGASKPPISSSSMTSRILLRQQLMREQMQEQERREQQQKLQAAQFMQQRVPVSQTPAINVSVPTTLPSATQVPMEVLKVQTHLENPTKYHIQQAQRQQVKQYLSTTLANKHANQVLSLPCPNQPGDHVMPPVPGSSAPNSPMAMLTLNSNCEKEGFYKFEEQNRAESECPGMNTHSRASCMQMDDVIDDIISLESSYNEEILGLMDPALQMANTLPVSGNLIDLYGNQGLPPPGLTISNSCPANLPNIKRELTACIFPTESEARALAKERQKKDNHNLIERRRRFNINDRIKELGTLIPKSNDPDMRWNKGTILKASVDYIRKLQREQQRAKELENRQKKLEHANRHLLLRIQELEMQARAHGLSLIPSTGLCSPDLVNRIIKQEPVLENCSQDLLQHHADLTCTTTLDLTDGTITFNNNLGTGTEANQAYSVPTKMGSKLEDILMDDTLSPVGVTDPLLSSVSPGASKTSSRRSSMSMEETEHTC
Put plainly: TRPM1 promoter luciferase signal decrease, dose response, MITF inhibitor project, cell-based, SK-MEL-5, cherry-picked, set 3 (AID 493073).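 Note: SK-MEL-5 melanoma cells with luciferase driven by the MITF target TRPM1 promoter.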 It counts as functional.

Test [23] has as its target Beta-galactosidase (Escherichia coli, UniProt Q8VNN2). The test is classed as functional.
A short description of test [24]: inhibitors of intracellular T. cruzi replication, confirmation, NIH3T3 host cells, beta-gal luminescence (AID 2044).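 Note: intracellular parasites grown in NIH/3T3 mouse fibroblasts as host cells; luminescent beta-galactosidase reporter signal from transgenic T. cruzi replicating inside host cells; inhibitors lower the luminescence signal.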 It counts as functional, cell-based.
Test [25] deals with T5, Kappa-type opioid receptor. The test is classed as functional. This is another data set of the same source.

T5 sequence (P41145 whole entry): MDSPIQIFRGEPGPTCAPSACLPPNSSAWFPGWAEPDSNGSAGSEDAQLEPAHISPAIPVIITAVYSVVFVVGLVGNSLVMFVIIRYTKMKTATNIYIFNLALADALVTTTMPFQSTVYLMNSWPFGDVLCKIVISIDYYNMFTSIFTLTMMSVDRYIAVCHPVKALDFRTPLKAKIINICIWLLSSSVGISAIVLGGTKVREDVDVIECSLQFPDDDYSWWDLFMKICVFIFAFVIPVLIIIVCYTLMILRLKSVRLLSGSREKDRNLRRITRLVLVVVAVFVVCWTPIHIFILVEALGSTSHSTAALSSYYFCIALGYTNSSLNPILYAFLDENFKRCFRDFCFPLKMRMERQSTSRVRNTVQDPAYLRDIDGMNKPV
T4 sequence (P51452 whole entry): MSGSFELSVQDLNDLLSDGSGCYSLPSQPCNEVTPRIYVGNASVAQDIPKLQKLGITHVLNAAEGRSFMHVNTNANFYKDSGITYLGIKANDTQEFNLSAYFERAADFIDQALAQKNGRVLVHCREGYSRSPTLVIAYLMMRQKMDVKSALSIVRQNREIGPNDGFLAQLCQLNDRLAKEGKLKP
Sequence of Alkaline phosphatase, placental type (P05187 whole entry): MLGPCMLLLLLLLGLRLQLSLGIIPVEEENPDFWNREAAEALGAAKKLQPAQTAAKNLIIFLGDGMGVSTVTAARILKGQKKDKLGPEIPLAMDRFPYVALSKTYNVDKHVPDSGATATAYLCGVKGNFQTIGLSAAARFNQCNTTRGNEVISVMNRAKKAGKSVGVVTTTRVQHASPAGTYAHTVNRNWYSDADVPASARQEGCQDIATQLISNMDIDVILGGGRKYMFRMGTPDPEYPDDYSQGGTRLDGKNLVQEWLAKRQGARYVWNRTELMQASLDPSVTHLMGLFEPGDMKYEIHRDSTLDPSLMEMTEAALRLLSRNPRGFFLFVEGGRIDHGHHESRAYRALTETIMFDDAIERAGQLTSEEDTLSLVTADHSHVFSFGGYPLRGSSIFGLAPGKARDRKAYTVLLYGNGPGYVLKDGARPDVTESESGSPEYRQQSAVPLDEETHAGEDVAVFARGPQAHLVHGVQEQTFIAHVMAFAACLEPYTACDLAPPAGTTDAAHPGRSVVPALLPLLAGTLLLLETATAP
Sequence of CAAX prenyl protease 2 (Saccharomyces cerevisiae S288c, UniProt Q03530) (Q03530 whole entry): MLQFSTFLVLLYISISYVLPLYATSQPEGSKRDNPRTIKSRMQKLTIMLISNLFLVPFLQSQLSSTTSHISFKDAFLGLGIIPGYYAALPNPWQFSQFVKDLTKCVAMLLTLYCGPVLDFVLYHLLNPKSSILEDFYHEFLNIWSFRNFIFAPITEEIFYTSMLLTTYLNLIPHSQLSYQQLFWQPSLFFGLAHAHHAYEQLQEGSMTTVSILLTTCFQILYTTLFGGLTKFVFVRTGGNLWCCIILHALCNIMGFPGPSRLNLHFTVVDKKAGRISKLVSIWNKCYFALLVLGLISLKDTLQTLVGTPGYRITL
Sequence of CAAX prenyl protease 2 (Homo sapiens, UniProt Q9Y256) (Q9Y256 whole entry): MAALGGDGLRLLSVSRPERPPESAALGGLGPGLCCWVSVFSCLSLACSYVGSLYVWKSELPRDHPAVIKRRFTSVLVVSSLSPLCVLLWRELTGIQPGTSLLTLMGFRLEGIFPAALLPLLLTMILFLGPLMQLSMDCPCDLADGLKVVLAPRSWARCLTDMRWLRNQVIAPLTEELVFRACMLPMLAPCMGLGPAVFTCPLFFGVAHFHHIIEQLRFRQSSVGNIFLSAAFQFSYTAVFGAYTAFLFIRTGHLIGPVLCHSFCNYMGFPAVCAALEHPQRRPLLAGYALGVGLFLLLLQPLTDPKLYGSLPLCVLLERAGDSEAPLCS
Sequence of Glyceraldehyde-3-phosphate dehydrogenase (P04406 whole entry): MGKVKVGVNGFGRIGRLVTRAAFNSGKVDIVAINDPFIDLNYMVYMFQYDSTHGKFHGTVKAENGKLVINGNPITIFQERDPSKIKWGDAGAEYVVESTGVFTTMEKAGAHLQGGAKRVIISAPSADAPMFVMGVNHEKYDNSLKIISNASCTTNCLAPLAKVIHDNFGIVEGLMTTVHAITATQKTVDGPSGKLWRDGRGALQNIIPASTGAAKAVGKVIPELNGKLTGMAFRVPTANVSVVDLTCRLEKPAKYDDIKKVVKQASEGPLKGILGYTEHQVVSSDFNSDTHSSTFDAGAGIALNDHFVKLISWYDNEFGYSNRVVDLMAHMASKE
Sequence of Sphingosine 1-phosphate receptor 4 (O95977 whole entry): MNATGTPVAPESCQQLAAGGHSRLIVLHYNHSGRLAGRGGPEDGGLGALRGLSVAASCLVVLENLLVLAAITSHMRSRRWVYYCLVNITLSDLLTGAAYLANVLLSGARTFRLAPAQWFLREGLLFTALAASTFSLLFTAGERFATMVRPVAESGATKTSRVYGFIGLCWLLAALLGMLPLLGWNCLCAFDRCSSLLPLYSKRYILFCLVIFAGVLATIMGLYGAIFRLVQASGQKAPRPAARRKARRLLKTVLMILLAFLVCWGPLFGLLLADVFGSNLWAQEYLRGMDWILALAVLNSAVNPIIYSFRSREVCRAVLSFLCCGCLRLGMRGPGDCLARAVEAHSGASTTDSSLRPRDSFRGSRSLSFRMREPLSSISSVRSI
Sequence of Beta-galactosidase (Q8VNN2 whole entry): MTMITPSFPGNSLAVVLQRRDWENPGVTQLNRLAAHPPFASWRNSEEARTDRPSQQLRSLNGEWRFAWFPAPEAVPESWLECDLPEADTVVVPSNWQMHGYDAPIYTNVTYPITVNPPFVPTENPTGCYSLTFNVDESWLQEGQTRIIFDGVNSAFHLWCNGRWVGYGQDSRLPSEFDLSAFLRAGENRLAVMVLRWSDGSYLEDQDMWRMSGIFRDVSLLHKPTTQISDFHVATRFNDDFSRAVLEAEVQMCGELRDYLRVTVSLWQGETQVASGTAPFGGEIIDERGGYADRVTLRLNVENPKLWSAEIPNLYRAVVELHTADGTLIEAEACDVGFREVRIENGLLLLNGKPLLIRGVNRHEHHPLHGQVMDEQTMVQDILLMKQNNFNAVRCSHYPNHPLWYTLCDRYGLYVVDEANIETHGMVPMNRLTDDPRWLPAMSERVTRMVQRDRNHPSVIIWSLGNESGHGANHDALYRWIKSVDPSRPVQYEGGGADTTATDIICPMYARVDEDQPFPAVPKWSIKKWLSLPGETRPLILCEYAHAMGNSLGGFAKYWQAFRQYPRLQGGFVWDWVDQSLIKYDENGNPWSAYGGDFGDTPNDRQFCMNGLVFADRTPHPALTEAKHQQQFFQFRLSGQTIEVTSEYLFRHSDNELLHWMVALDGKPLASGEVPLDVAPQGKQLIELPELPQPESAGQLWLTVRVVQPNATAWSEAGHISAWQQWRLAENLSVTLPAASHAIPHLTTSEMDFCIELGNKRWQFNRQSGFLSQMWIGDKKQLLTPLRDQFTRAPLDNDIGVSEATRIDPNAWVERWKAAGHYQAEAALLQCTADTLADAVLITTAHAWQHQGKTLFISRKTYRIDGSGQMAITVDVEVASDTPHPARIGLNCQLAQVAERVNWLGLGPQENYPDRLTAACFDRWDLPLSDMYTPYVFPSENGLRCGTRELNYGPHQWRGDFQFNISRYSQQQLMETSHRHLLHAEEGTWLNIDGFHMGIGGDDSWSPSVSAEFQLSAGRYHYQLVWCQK

`Cc1cc(C)nc(SCc2cn3c(C)cc(C)nc3n2)n1`: the results for the AC50 in [1] and in test [2] were 35.7 µM (active) and 35.2 µM (active), respectively.
Turning to `CCCCN1C(=O)/C(=N\Nc2ccccc2O)c2ccccc21`, the IC50 in [3], in [4] and in test [5] was > 100 µM (inactive) each time.
As for `O=c1/c(=C/c2ccc(-c3ccccc3[N+](=O)[O-])o2)sc2nc3cc(Br)cnc3n12`, the IC50 in test [6] is > 100 µM (not active); in [7], 49 µM (active); in test [8], 43.9 µM (active); in [9], 12.1 µM (active); in [10] it was 5.53 µM (active); in test [11] it was 4.13 µM (active). In [12], the IC50 is 55.5 µM (active).
Consider `O=C(N/N=C/c1ccc([N+](=O)[O-])o1)c1ccccn1`, for which the AC50 in test [13] was 28 µM (active); in [14], 1.47 µM (active).
With `Cc1ccc(OCCOc2ccc(C)nc2[N+](=O)[O-])c([N+](=O)[O-])n1`, the EC50 in test [15] was > 50 µM (inactive).
Compound `C/C(=N\NC(=O)Cc1ccc(Cl)cc1)c1ccccn1` gave a pIC50 in test [16] of under 4.49. In addition, the EC50 in test [17] is 57.6 µM (active); in [18], 54.9 µM (active); in [20], < 6 µM (inconclusive); in test [23] it was > 31.5 µM (inactive); in [24] it was 0.635 µM (active). In addition, the AC50 is 1.05 µM (active) in [19] and 4.22 µM (active) in [22]. Besides, the cytotoxic concentration (CC50) in [21] was 2.29 µM (active). For the same compound, in test [25], the IC50 is 5.02 µM (active).
